Consider five molecules from patent US10988523B2, “Modified lipidated Relaxin B chain peptides and their therapeutic use” (Sanofi, priority 2018, dated 2021).

Data set [1] is described as follows: Pharmacokinetic (PK) determination after i.v. or s.c. administration to rats. The class given is in vivo, Sprague Dawley rats. As to conditions: Sprague Dawley, Rat PK; for C0 / half-life: iv, 1 mg/kg i.v.; for C0: extrapolated plasma concentration at t=0, read-out: C0; for half-life / Cmax / Tmax / bioavailability: plasma; for half-life: read-out: T½ (converted); for Cmax / Tmax: sc, 3 mg/kg s.c.; for bioavailability: subcutaneous, 3 mg/kg s.c. vs 1 mg/kg i.v., dose-corrected AUC ratio. As for the experimental part:
Prior to the testing of a peptide batch, its purity (HPLC-UV) was determined. Dose was corrected for presence of salts, solvent and purity.
Sprague Dawley rats were dosed with study peptide at a dose of 1 mg/kg intravenously (i.v.) or 3 mg/kg subcutaneously (s.c.) as a solution in PBS (0.2 mg/ml and 0.6 mg/ml respectively).
Plasma samples were analyzed after protein precipitation via liquid chromatography mass spectrometry (LC/MS).
PK parameters and half-life were calculated using Phoenix 64 (WinNonlin 6.4)-Pharsight (Certara™) (non-compartment model). Values below the limit of quantification (BLQ) were replaced by zero for subsequent calculations and PK analysis.
T½: in-vivo half life, time required for test compound plasma concentration to be divided by two during the PK experiment.
C0: Extrapolated test compound plasma concentration at t=0 time point (i.v. route).
Cmax: maximal test compound plasma concentration at the indicated time point (s.c. route).
Tmax: Time point where Cmax is attained.
F %: s.c. vs i.v. bioavailability, dose-corrected area under curve (AUC) s.c. route divided by AUC i.v.

In a further data set the target is T1, RXFP1 (Homo sapiens, UniProt Q9HBX9).
T1 construct: OVCAR5 cells expressing endogenous RXFP1; endogenous in cells; host or cells: OVCAR5 cells
T1 sequence (Q9HBX9 1-757): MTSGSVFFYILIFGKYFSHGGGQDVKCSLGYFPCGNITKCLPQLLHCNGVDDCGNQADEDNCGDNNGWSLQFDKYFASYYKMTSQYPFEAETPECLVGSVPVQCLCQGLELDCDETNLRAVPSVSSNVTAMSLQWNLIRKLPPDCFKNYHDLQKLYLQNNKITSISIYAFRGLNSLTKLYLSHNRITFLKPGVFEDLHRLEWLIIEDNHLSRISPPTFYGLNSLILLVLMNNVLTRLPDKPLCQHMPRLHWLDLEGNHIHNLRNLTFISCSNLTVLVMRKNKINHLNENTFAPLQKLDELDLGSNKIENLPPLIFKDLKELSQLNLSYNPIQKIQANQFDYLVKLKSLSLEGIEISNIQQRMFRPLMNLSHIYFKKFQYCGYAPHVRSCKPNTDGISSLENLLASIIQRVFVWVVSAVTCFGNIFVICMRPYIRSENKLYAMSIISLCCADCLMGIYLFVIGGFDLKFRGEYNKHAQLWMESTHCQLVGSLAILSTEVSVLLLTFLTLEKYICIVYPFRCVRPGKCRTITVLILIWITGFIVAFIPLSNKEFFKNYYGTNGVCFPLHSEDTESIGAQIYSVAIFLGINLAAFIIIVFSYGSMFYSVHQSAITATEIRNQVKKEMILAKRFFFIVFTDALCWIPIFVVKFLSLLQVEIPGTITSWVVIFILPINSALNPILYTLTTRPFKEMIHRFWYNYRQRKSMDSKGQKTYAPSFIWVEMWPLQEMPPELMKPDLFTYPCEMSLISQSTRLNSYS
In words: OVCAR5 cAMP assay (HTRF), RXFP1 agonist activity. The class given is cell-based. As to conditions: for EC50: OVCAR5 cells, cAMP HTRF, read-out: EC50 (nM), OVCAR 5 cells (cAMP); for Emax: OVCAR-5, maximal cAMP relative to H2-relaxin maximum (100%), read-out: EMax, OVCAR 5 cells (cAMP). The procedure, abridged: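 OVCAR5 cells (endogenous RXFP1) pretreated 40 min at 37° C with 1 mM IBMX, then exposed to peptides in serum-free medium for 30 min at 37° C. Lysate cAMP read by HTRF; EC50 from variable-slope sigmoidal fit; Emax as % of H2-relaxin maximal cAMP in same run.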

The Cmax is the peak of the concentration-time curve. What is called Tmax is the time at which the peak concentration occurs. One may read the bioavailability as the share of a dose that reaches the circulation, judged against a reference dose that is usually intravenous. As a reminder, the EC50 is the midpoint of the concentration-response curve. As a reminder, the Emax is the size of the effect at its maximum, as opposed to the concentration needed.

*1 amine or outer side, *2 acyl side, *3 side chain or, on linkers, in order; H or OH if unused. Where a SMILES comes first, the peptide text is derived from it. Side-chain parts run from the residue outwards. [ ]: non-standard residue; d: D form. The star is where a group is joined. X5 = CCCCCCCCCCCCCCCC(=O)N[C@@H](CCC(=O)NCCCC[C@H](NC(=O)CC[C@H](NC(=O)CC[C@H](NC(=O)CC[C@H](NC(=O)CCC(=O)NCCCOCCOCCOCCCNC(=O)CCC(=O)NCCCOCCOCCOCCCN*)C(=O)O)C(=O)O)C(=O)O)C(N)=O)C(=O)O; PEG12 = NCCOCCOCCOCCOCCOCCOCCOCCOCCOCCOCCOCCOCCC(=O)O; γGlu = O=C(O)[C@H](CCC(=O)[*:2])N[*:1]; 1Nal = N[C@@H](Cc1cccc2ccccc12)C(=O)O; Stearoyl = CCCCCCCCCCCCCCCCCC(=O)*; Palmitoyl = CCCCCCCCCCCCCCCC(=O)*; αMeK = C[C@](N)(CCCCN)C(=O)O; Nle = CCCC[C@H](N)C(=O)O; AEEA = NCCOCCOCC(=O)O; Aib = CC(C)(N)C(=O)O

With `CCCCCCCCCCCCCCCCCC(=O)N[C@@H](CCC(=O)NCCOCCOCC(=O)N[C@@H](CCC(=O)N[C@@H](CCC(=O)NCCOCCOCC(=O)NCCOCCOCC(=O)NCCCC[C@H](NC(=O)[C@H](CCCCNC(C)=O)NC(=O)[C@H](CCCCN)NC(=O)[C@H](CCCNC(=N)N)NC(=O)C(C)(C)NC(=O)[C@H](CO)NC(=O)[C@H](Cc1c[nH]c2ccccc12)NC(=O)[C@@H](NC(=O)[C@H](CO)NC(=O)[C@H](CCCC)NC(=O)CNC(=O)[C@H](CCC(=O)O)NC(=O)C(C)(C)NC(=O)C(C)(C)NC(=O)[C@@H](NC(=O)[C@H](CCCCNC(C)=O)NC(=O)[C@H](C)NC(=O)[C@H](CCCNC(=N)N)NC(=O)[C@@H](NC(=O)[C@H](CCCCN)NC(=O)[C@H](CCC(=O)O)NC(=O)[C@H](CCCNC(=N)N)NC(=O)CNC(=O)[C@H](CCC(=O)O)NC(=O)[C@H](CC(C)C)NC(C)=O)C(C)C)[C@@H](C)CC)[C@@H](C)O)C(N)=O)C(=O)O)C(=O)O)C(=O)O` [compound 101] (Ac-LEGREKVRAK(Ac)I[Aib][Aib]EG[Nle]STWS[Aib]RKK(Ac)K([AEEA-AEEA-γGlu-γGlu-AEEA-γGlu-Stearoyl])-NH2), in data set [1], the C0 was 1800 nM, the half-life was 1.8 h, the peak level (Cmax) was 1000 nM and the Tmax was 7 h. In addition, the bioavailability in data set [1] came to 39%. Also, on RXFP1, the EC50 is 0.16 nM and the Emax was 86%.

Consider `CCCCCCCCCCCCCCCC(=O)N[C@@H](CCC(=O)NCCCC[C@H](NC(=O)CC[C@H](NC(=O)CC[C@H](NC(=O)CC[C@H](NC(=O)CCC(=O)NCCCOCCOCCOCCCNC(=O)CCC(=O)NCCCOCCOCCOCCCNC(=O)[C@H](CCCCNC(C)=O)NC(=O)[C@H](C)NC(=O)[C@H](CCCNC(=N)N)NC(=O)[C@](C)(CCCCN)NC(=O)[C@H](CO)NC(=O)[C@H](Cc1ccccc1)NC(=O)[C@@H](NC(=O)[C@H](CO)NC(=O)[C@H](CCCC)NC(=O)CNC(=O)[C@H](CCC(=O)O)NC(=O)C(C)(C)NC(=O)C(C)(C)NC(=O)[C@@H](NC(=O)[C@H](CCCCNC(C)=O)NC(=O)[C@H](C)NC(=O)[C@H](CCCNC(=N)N)NC(=O)[C@@H](NC(=O)[C@H](CCCCN)NC(=O)[C@H](CCC(=O)O)NC(=O)[C@H](CCCNC(=N)N)NC(=O)CNC(=O)[C@H](CCC(=O)O)NC(=O)[C@H](CC(C)C)NC(C)=O)C(C)C)[C@@H](C)CC)[C@@H](C)O)C(=O)O)C(=O)O)C(=O)O)C(N)=O)C(=O)O` [compound 157] (Ac-LEGREKVRAK(Ac)I[Aib][Aib]EG[Nle]STFS[αMeK]RAK(Ac)-X5), for which, in data set [1], the C0 is 4350 nM, the half-life was 6.69 h, the Cmax was found to be 1510 nM and the Tmax turned out to be 8 h. Further, in data set [1], the bioavailability was 59%. For the same molecule, on RXFP1, the EC50 was 0.02 nM and the Emax was determined as 89%.

As for `CCCCCCCCCCCCCCCCCC(=O)N[C@@H](CCC(=O)N[C@@H](CCC(=O)N[C@@H](CCC(=O)NCCCC[C@H](NC(=O)CCOCCOCCOCCOCCOCCOCCOCCOCCOCCOCCOCCOCCNC(=O)[C@H](CCCCN)NC(=O)[C@H](CCCNC(=N)N)NC(=O)C(C)(C)NC(=O)[C@H](CO)NC(=O)[C@H](Cc1cccc2ccccc12)NC(=O)[C@@H](NC(=O)[C@H](CO)NC(=O)[C@H](CCCC)NC(=O)CNC(=O)[C@H](CCC(=O)O)NC(=O)C(C)(C)NC(=O)C(C)(C)NC(=O)[C@@H](NC(=O)[C@H](CCCCNC(C)=O)NC(=O)[C@H](C)NC(=O)[C@H](CCCNC(=N)N)NC(=O)[C@@H](NC(=O)[C@H](CCCCN)NC(=O)[C@H](CCC(=O)O)NC(=O)[C@H](CCCNC(=N)N)NC(=O)CNC(=O)[C@H](CCC(=O)O)NC(=O)[C@H](CC(C)C)NC(C)=O)C(C)C)[C@@H](C)CC)[C@@H](C)O)C(N)=O)C(=O)O)C(=O)O)C(=O)O` [compound 45] (Ac-LEGREKVRAK(Ac)I[Aib][Aib]EG[Nle]ST[1Nal]S[Aib]RK[PEG12]K([γGlu-γGlu-γGlu-Stearoyl])-NH2), in data set [1], the C0 was 2900 nM, the half-life is 2.88 h, the highest level (Cmax) was 2200 nM and the Tmax came to 7 h. Besides, the bioavailability in data set [1] came out at 65%. The Emax at RXFP1 amounted to 79%.

On to `CCCCCCCCCCCCCCCC(=O)N[C@@H](CCC(=O)N[C@@H](CCC(=O)NCCCC[C@H](NC(=O)CC[C@H](NC(=O)CC[C@H](NC(=O)COCCOCCNC(=O)COCCOCCNC(=O)COCCOCCNC(=O)COCCOCCNC(=O)[C@H](CCCCNC(C)=O)NC(=O)[C@H](C)NC(=O)[C@H](CCCNC(=N)N)NC(=O)[C@](C)(CCCCN)NC(=O)[C@H](CO)NC(=O)[C@H](Cc1ccccc1)NC(=O)[C@@H](NC(=O)[C@H](CO)NC(=O)[C@H](CCCC)NC(=O)CNC(=O)[C@H](CCC(=O)O)NC(=O)C(C)(C)NC(=O)C(C)(C)NC(=O)[C@@H](NC(=O)[C@H](CCCCNC(C)=O)NC(=O)[C@H](C)NC(=O)[C@H](CCCNC(=N)N)NC(=O)[C@@H](NC(=O)[C@H](CCCCN)NC(=O)[C@H](CCC(=O)O)NC(=O)[C@H](CCCNC(=N)N)NC(=O)CNC(=O)[C@H](CCC(=O)O)NC(=O)[C@H](CC(C)C)NC(C)=O)C(C)C)[C@@H](C)CC)[C@@H](C)O)C(=O)O)C(=O)O)C(N)=O)C(=O)O)C(=O)O` [compound 160] (Ac-LEGREKVRAK(Ac)I[Aib][Aib]EG[Nle]STFS[αMeK]RAK(Ac)[AEEA][AEEA][AEEA][AEEA][γGlu][γGlu]K([γGlu-γGlu-Palmitoyl])-NH2), for which, in data set [1], the C0 was 2500 nM, the half-life is 5.3 h, the Cmax came to 1200 nM and the Tmax was found to be 7 h. Besides, in data set [1], the bioavailability was 66%. Moreover, at RXFP1, the EC50 came out at 0.28 nM and the Emax amounted to 86%.

For the molecule `CCCCCCCCCCCCCCCC(=O)N[C@@H](CCC(=O)NCCCC[C@H](NC(=O)CC[C@H](NC(=O)CC[C@H](NC(=O)CC[C@H](NC(=O)COCCOCCNC(=O)COCCOCCNC(=O)COCCOCCNC(=O)COCCOCCNC(=O)[C@H](CCCCNC(C)=O)NC(=O)[C@H](CCCCN)NC(=O)[C@H](CCCNC(=N)N)NC(=O)[C@](C)(CCCCN)NC(=O)[C@H](CO)NC(=O)[C@H](Cc1c[nH]c2ccccc12)NC(=O)[C@@H](NC(=O)[C@H](CO)NC(=O)[C@H](CCCC)NC(=O)CNC(=O)[C@H](CCC(=O)O)NC(=O)C(C)(C)NC(=O)C(C)(C)NC(=O)[C@@H](NC(=O)[C@H](CCCCNC(C)=O)NC(=O)[C@H](C)NC(=O)[C@H](CCCNC(=N)N)NC(=O)[C@@H](NC(=O)[C@H](CCCCN)NC(=O)[C@H](CCC(=O)O)NC(=O)[C@H](CCCNC(=N)N)NC(=O)CNC(=O)[C@H](CCC(=O)O)NC(=O)[C@H](CC(C)C)NC(C)=O)C(C)C)[C@@H](C)CC)[C@@H](C)O)C(=O)O)C(=O)O)C(=O)O)C(N)=O)C(=O)O` [compound 136] (Ac-LEGREKVRAK(Ac)I[Aib][Aib]EG[Nle]STWS[αMeK]RKK(Ac)[AEEA][AEEA][AEEA][AEEA][γGlu][γGlu][γGlu]K([γGlu-Palmitoyl])-NH2), in data set [1], the C0 was 3000 nM, the half-life is 2.9 h, the Cmax was 1870 nM and the Tmax was 8 h. Besides, the bioavailability in data set [1] is 86%. Besides, on RXFP1, the EC50 worked out at 0.03 nM and the Emax came to 92%.
